Assays:
[1] = target: T1, human TLR8 (Homo sapiens, UniProt Q9NR97); test: Inhibitory effect on human TLR8 pathway (HEK-Blue hTLR8 SEAP reporter); assay type: cell-based; conditions: HEK-Blue hTLR8 cells, 6 μM resiquimod, 20 h, SEAP OD620
T1 construct: host or cells: HEK-Blue hTLR8 (HEK293)
T1 sequence (Q9NR97 27-1041): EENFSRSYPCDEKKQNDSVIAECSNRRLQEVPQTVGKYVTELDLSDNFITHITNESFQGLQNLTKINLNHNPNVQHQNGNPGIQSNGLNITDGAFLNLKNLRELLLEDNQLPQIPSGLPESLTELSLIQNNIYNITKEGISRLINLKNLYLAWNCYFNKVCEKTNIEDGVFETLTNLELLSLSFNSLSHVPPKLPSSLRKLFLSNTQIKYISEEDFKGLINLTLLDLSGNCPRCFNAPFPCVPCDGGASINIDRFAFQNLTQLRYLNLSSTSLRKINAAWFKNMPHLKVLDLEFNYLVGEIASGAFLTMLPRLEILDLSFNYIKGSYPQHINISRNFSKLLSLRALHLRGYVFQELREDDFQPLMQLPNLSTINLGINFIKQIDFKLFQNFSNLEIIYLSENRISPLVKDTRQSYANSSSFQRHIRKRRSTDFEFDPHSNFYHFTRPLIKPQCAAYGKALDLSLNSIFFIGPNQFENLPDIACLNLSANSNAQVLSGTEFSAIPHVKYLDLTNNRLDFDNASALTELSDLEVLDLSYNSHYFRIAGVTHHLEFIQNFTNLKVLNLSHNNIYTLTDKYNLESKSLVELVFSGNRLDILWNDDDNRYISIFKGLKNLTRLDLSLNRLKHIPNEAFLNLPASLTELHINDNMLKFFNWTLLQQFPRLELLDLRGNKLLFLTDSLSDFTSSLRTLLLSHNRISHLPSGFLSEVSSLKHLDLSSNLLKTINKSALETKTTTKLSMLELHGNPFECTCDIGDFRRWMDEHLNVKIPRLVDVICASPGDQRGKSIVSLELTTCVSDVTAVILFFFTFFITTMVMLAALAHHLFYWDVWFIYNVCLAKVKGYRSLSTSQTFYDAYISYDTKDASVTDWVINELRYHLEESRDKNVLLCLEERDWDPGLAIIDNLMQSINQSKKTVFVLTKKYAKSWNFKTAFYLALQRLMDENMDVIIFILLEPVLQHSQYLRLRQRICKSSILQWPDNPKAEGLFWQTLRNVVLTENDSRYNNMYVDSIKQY
Procedure: (§1) • 1. HEK-Blue™ hTLR8 cell (Invivogen) • 2. Resiquimod (R848, Invivogen) • 3. Alkaline phosphatase detection medium (Quanti-Blue Detection, Invivogen) • 4. Blasticidin (Invivogen) • 5. Zeocin (Invivogen) • 6. Normocin (Invivogen) • 7. DMEM/HIGH Glucose (GE Healthcare) • 8. Fetal bovine serum (FBS, Gibco) • 9. Phosphate-buffered saline (Shanghai BasalMedia Technologies Co., Ltd.) • 10. Sterile purified water (made in-house by Shanghai Hengrui) • 11. 15 mL centrifuge tube (Corning) • 12. 96-well formulating plate (Corning) • 13. 96-well flat-bottom cell culture plate (Corning) • 14. Constant-temperature cell incubator (Thermo scientific) • 15. Constant-temperature incubator (Shanghai Yiheng Scientific Instruments Co., Ltd.) • 16. PHERAstar FS microplate reader (BMG Labtech)
(§2) HEK-Blue™ hTLR8 cells were purchased from Invivogen. These cells are HEK293 cells transfected with the human Toll-like receptor 8 (TLR8) gene and the secreted alkaline phosphatase reporter gene (SEAP). The alkaline phosphatase reporter gene (SEAP) is under the regulation of the IFN—P minimal promoter comprising 5 NF-kB and AP-1 binding sites. Upon activation of TLR8 with an agonist, SEAP secretion is induced via downstream NF-kB and AP-1. After addition of an antagonist compound, the pathway described above is inhibited, and SEAP secretion is reduced. The activity of the compounds for the TLR8 pathway was evaluated by measuring OD620 through the SEAP substrate.
(§3) 20 mM test compounds dissolved in 100% DMSO were serially diluted with 100% DMSO to 2000, 400, 80, 16, 3.2, 0.64, 0.128, 0.0256 μM, with blank wells containing 100% DMSO. The compounds and 100% DMSO were then 20-fold diluted in DMEM/HIGH glucose media containing 10% inactivated FBS (complete media, the same applies below). Resiquimod was diluted to 60 μM with sterile water. The 60 μM resiquimod dilution in sterile water was added to a 96-well cell culture plate at 20 μL/well. The above compounds diluted in complete media and 100% DMSO were then added at 20 μL/well to wells containing resiquimod, 20 μL of sterile water and 20 μL of 100% DMSO diluted in the complete medium were added to negative control wells.
(§4) HEK-Blue™ hTLR8 cells were cultured in a DMEM/HIGH glucose medium containing 10% inactivated FBS, 100 μg/mL Normocin, 10 μg/mL blasticidin, and 100 μg/mL Zeocin. Cells that were in a good state of growth and had grown to 70%-8% were collected. The growth medium was discarded, 5-10 mL of PBS pre-heated at 37° C. was added to wash the cells once, and 2-5 mL of pre-heated PBS was added. The cells were cultured at 37° C. for 1-2 min, dispersed by pipetting, transferred to a 15 mL centrifuge tube, and counted, and the cell density was adjusted to 4.8×10^5/mL with the complete medium. After density adjustment, 160 μL of the resulting cell suspension was added to the above 96-well cell culture plate to a final number of cells per well of 76,500/well. The final concentration of resiquimod was 6 μM, and the final concentrations of the test compounds were 10,000, 2000, 400, 80, 16, 3.2, 0.64, and 0.128 nM. The cells were cultured in a 37° C., 5% CO2 incubator for 20 h. Then 20 μL of the supernatant was added to 180 μL of the prepared alkaline phosphatase detection medium and incubated in the dark in a constant-temperature incubator at 37° C. for 120 min. The OD620 absorbance readings were taken on a microplate reader. The inhibition rate was calculated using the following formula: […]
Inhibition curves were plotted using Graphpad Prism software according to the concentrations of the compounds and the corresponding inhibition rates, and the concentrations of the compounds at which the inhibition rate reached 50%, i.e., IC50 values, were calculated and are shown in Table 2.

[2] = target: T2, human TLR7 (Homo sapiens, UniProt Q9NYK1); test: Inhibitory effect on human TLR7 activation pathway (HEK-Blue hTLR7 SEAP reporter); assay type: cell-based; conditions: HEK-Blue hTLR7 cells, 1 μM resiquimod, 20 h, SEAP OD620
T2 construct: host or cells: HEK-Blue hTLR7 (HEK293)
T2 sequence (Q9NYK1 27-1049): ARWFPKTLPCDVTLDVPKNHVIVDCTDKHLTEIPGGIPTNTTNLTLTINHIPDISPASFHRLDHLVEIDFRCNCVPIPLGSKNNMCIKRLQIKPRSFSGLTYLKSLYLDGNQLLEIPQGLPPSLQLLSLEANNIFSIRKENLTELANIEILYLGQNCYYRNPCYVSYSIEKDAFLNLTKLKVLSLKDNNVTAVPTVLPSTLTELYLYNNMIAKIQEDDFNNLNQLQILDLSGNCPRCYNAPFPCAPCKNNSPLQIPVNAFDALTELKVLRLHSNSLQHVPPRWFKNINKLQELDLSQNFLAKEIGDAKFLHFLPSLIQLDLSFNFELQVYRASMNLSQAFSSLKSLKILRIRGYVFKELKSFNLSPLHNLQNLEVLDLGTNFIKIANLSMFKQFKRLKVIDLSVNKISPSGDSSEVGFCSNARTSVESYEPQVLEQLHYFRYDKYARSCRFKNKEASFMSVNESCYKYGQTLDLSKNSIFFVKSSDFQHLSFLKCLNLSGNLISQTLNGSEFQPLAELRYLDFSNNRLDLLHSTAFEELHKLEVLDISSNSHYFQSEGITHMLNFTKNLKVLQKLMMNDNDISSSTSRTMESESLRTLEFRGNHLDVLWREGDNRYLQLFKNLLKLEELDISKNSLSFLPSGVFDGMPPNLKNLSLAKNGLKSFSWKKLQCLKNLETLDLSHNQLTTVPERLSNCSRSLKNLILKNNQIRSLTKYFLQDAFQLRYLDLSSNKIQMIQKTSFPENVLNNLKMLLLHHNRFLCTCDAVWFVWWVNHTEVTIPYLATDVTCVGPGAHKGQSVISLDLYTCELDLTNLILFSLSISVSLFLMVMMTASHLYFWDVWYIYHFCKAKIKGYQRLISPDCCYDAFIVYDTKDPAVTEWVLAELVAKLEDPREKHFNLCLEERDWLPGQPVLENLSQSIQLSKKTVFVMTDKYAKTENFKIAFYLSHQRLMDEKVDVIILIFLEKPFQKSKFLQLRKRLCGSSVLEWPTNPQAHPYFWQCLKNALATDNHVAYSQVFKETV
Procedure: as §1, with “HEK-Blue™ hTLR7” for “HEK-Blue™ hTLR8”, “12. %-well” for “12. 96-well”
as §2, with “hTLR7” for “hTLR8”, “7 (TLR7)” for “8 (TLR8)”, “TLR7” for “TLR8”
as §3, with “10” for “60”
as §4, with “HEK-Blue™ hTLR7” for “HEK-Blue™ hTLR8”, “to 70%-80%” for “to 70%-8%”, “to 4.8-10′/mL” for “to 4.8×10^5/mL”, “was 1” for “was 6”, “min. Then the” for “min. The”
Inhibition curves were plotted using Graphpad Prism software according to the concentrations of the compounds and the corresponding inhibition rates, and the concentrations of the compounds at which the inhibition rate reached 50%, i.e., IC50 values, were calculated and are shown in Table 1.

Row | IC50 [1] [nM] | IC50 [2] [nM] | SMILES
1 | 10.5 | – | Cc1cc(-c2[nH]c3cc4c(nc3c2C2CCOCC2)CNCC4)cc(C)n1 [Example 6, 2-(2,6-Dimethylpyridin-4-yl)-3-(tetrahydro-2H-pyran-4-yl)-5,6,7,8-tetrahydro-1H-pyrrolo[3,2-b][1,7]naphthyridine]
2 | – | 14.9 | Cc1cc(-c2[nH]c3cc4c(nc3c2C(C)C)CC(NC2CCOC2)CC4)cc(C)n1 (centres unmarked) [Example 3, 2-(2,6-Dimethylpyridin-4-yl)-3-isopropyl-N-(tetrahydrofuran-3-yl)-5,6,7,8-tetrahydro-1H-pyrrolo[3,2-b]quinolin-6-amine]

Source: patent publication US20240360133A1, “FUSED TRICYCLIC COMPOUND, PREPARATION METHOD THEREFOR AND APPLICATION THEREOF IN MEDICINE” (Jiangsu Hengrui Pharmaceuticals Co., Ltd., priority 2020, published 2024)
